Assay: Compatibility of artesunate and ferroquine combined within one and the same tablet
Format: physicochemical
Settings: color of artesunate goes from white to brown
Description: However, artesunate and ferroquine are strongly incompatible if the two active ingredients are combined within one and the same tablet.

C[C@H]1[C@H](OC(=O)CCC(=O)O)O[C@@H]2O[C@@]3(C)CC[C@H]4[C@H](C)CC[C@@H]1[C@@]24OO3 [artesunate, Artesunate]
stability of artesunate when combined with ferroquine within the same tablet: rapid increase in the level of artesunate degradation products
